Reference: US20210186905A1, “ENHANCING T-CELL FUNCTION AND TREATING A T-CELL DYSFUNCTIONAL DISORDER WITH A COMBINATION OF AN LSD INHIBITOR AND A PD-1 BINDING ANTAGONIST” (EpiAxis Therapeutic Pty Ltd, priority 2017, published 2021)
Where a name gives a salt, the structure may show the parent alone.

Columns and labels:
CD4+/CD8+ T-cells = test: Flow cytometry of T-cell populations (naive, effector and central memory) in 4T1 mice; format: in vivo, mouse
Protocol: (§1) FIG. 5 is a graphical representation showing that dual epigenetic-immunotherapy re-educates and re-programs the T-cell repertoire. A. Cells stimulated with PMA/ionomycin for 4 hours in the presence of Brefeldin A. Cells were surfaced stained with CD45, CD3, CD4, CD8, CD44, CD62L (for naïve, effector and central memory), CD25 and FoxP3 (for Tregs) and analyzed via Flow cytometry. A Mann-Whitney non-parametric t-test was used to compare control vs other groups (*p<0.05, n=2-5). […] Representative images for each dataset are shown. TNFI values for EOMES, TBET and Ki67 measured using Image) to select the nucleus minus background. Graphs represent the % change of expression relative to control group for CD8^+ T-cells. (n>20 individual cells, Group A=Control, Group C: PD1 (10 mg/kg), Group D: Phenelzine (40 mg/kg), Group F: PD1+Phenelzine). C. Cells stimulated with PMA/ionomycin for 4 hours in the presence of Brefeldin A. Cell were surfaced stained with CD45, CD3, CD4, CD8 and intracellular staining of IFN-γ, IL-2 and TNF-α in the presence of Brefeldin A and analyzed via flow cytometry. A Mann-Whitney non-parametric t-test was used to compare control vs other groups (*p<0.05, **p<0.008; n=2-5). […] Representative images for each dataset are shown. TNFI values for TNFα and IFNγ measured using ImageJ to select the nucleus minus background. […]

[1] = tested on: T-cell activation and exhaustion genes; test: Nanostring transcript analysis of CD8+ T-cells from 4T1 metastatic mouse model; format: in vivo
Protocol: as §1

In the case of `NNCCc1ccccc1` (racemic) [phenelzine sulfate, (±)-2-phenylethylhydrazine], the “CD8+ central memory and effector memory populations” value (CD4+/CD8+ T-cells) is reported as “enhance” and the “exhaustive signature genes such as CTLA4 and LAG3” value [1] is reported as “inhibited”.
